Key:
[1] = log P by HPLC on reversed phase columns (EEC directive 79/831 Annex V.A8); format: physicochemical; details: Table 1, compounds of formula (I); method [a]: LC-MS at pH 2.7, 0.1% formic acid in water / acetonitrile
[2] = system: Blumeria graminis fsp. hordei; experiment: In vivo Blumeria test (barley) / preventive; details: 500 ppm of active ingredient, evaluated 7 days after the inoculation
Method: [table] To produce a suitable preparation of active compound, 1 part by weight of active compound or active compound combination is mixed with the stated amounts of solvent and emulsifier, and the concentrate is diluted with water to the desired concentration. To test for preventive activity, young plants are sprayed with the preparation of active compound or active compound combination at the stated rate of application. After the spray coating has been dried, the plants are dusted with spores of Blumeria graminis fsp. hordei. The plants are placed in the greenhouse at a temperature of approximately 18° C. and a relative atmospheric humidity of approximately 80% to promote the development of mildew pustules.

Sphaerotheca fuliginea = experiment: In vivo preventive test on Sphaerotheca fuliginea (powdery mildew on cucurbits); details: 500 ppm, preventive spray, gherkin plants, grading 12 days after contamination
Method: Gherkin plants (“Vert petit de Paris” variety), sown in starter cups on a 50/50 peat soil-pozzolana substrate and grown at 24° C., are treated at the Z11 cotyledon stage by spraying with the active ingredient prepared as described above. Plants, used as controls, are treated with the mixture of acetone/tween/DMSO/water not containing the active material. After 24 hours, the plants are contaminated by spraying the cotyledons with an aqueous suspension of Sphaerotheca fuliginea spores (100 000 spores per ml). The spores are collected from infected plants. The contaminated gherkin plants are incubated at about 20° C. and at 70-80% relative humidity. Grading (% of efficacy) is carried out 12 days after the contamination, in comparison with the control plants.

Phakopsora pachyrhizi = experiment: In vivo Phakopsora test (soybeans) / preventive; details: 10 ppm of active ingredient, evaluated 7 days after the inoculation
Method: (§1) [table] To produce a suitable preparation of active compound, 1 part by weight of active compound is mixed with the stated amounts of solvent and emulsifier, and the concentrate is diluted with water to the desired concentration. To test for preventive activity, young plants are sprayed with the preparation of active compound at the stated rate of application. […] The plants remain in the incubation cabinet at approximately 24° C. and a relative atmospheric humidity of approximately 80% and a day/night interval of 12 h.

[3] = system: Fusarium nivale (var. majus); experiment: In vivo Fusarium nivale (var. majus) test (wheat) / preventive; details: 500 ppm of active ingredient, evaluated 5 days after the inoculation
Method: [table] To produce a suitable preparation of active compound, 1 part by weight of active compound or active compound combination is mixed with the stated amounts of solvent and emulsifier, and the concentrate is diluted with water to the desired concentration. To test for preventive activity, young plants are sprayed with the preparation of active compound or active compound combination at the stated rate of application. After the spray coating has been dried, the plants are slightly injured by using a sandblast and afterwards they are sprayed with a conidia suspension of Fusarium nivale (var. majus).

Uromyces appendiculatus = experiment: In vivo preventive test on Uromyces appendiculatus (bean rust); details: 500 ppm, preventive spray, bean plants, grading 11 days after contamination
Method: Bean plants (“Saxa” variety), sown in starter cups on a 50/50 peat soil-pozzolana substrate and grown at 24° C., are treated at the 2-leaf stage (9 cm height) by spraying with the active ingredient prepared as described above. Plants, used as controls, are treated with the mixture of acetone/tween/DMSO/water not containing the active material. After 24 hours, the plants are contaminated by spraying the leaves with an aqueous suspension of Uromyces appendiculatus spores (150 000 spores per ml). […] Grading (% of efficacy) is carried out 11 days after the contamination, in comparison with the control plants.

Puccinia recondita = experiment: In vivo preventive test on Puccinia recondita (brown rust on wheat); details: 500 ppm, preventive spray, wheat plants, grading 12 days after contamination
Method: Plants, used as controls, are treated with the mixture of acetone/tween/DMSO/water not containing the active material. After 24 hours, the plants are contaminated by spraying the leaves with an aqueous suspension of Puccinia […] spores (100 000 spores per ml). […] Grading (% of efficacy) is carried out 12 days after the contamination, in comparison with the control plants.

Pyrenophora teres = experiment: In vivo preventive test on Pyrenophora teres (net blotch on barley); details: 500 ppm, preventive spray, barley plants, incubated 48 hours then 12 days
Method: Barley plants (“Plaisant” variety), sown in starter cups on a 50/50 peat soil-pozzolana substrate and grown at 22° C., are treated at the 1-leaf stage (10 cm height) by spraying with the active ingredient prepared as described above. Plants, used as controls, are treated with the mixture of acetone/tween/DMSO/water not containing the active material. After 24 hours, the plants are contaminated by spraying the leaves with an aqueous suspension of Pyrenophora teres spores (12 000 spores per ml). The spores are collected from a 12-day-old culture.

Pyricularia oryzae = format: in vivo; details: 500 ppm, preventive spray, rice plants, grading 6 days after contamination
Venturia inaequalis = experiment: In vivo Venturia test (apples) / preventive; details: 100 ppm of active ingredient, evaluated 10 days after the inoculation
Method: as §1, with “are then placed” for “remain”, “a greenhouse” for “the incubation cabinet”, “21°” for “24°”, “90%.” for “80% and a day/night interval of 12 h.”

Botrytis cinerea = experiment: In vivo preventive test on Botrytis cinerea (grey mould), gherkin; details: 500 ppm, preventive spray, gherkin plants, grading 4 to 5 days after contamination
Method: Gherkin plants (“Vert petit de Paris” variety), sown in starter cups on a 50/50 peat soil-pozzolana substrate and grown at 24° C., are treated at the Z11 cotyledon stage by spraying with the active ingredient prepared as described above. Plants, used as controls, are treated with the mixture of acetone/tween/DMSO/water not containing the active material. After 24 hours, the plants are contaminated by spraying the cotyledons with an aqueous suspension of cryopreserved Botrytis cinerea spores (50 000 spores per ml). The spores are suspended in a nutrient solution composed of 10 g/L of PDB, 50 g/L of D-Fructose, 2 g/L of NH4NO3 and 1 g/L of KH2PO4. The contaminated gherkin plants are incubated at 17° C. and at 90% relative humidity. Grading (% of efficacy) is carried out 4 to 5 days after the contamination, in comparison with the control plants.

Septoria tritici = experiment: In vivo preventive test on Septoria tritici (leaf spot on wheat); details: 500 ppm, preventive spray, wheat plants, grading 24 days after contamination
Method: Wheat plants (“Scipion” variety), sown in starter cups on a 50/50 peat soil-pozzolana substrate and grown at 22° C., are treated at the 1-leaf stage (10 cm height) by spraying with the active ingredient prepared as described above. Plants, used as controls, are treated with the mixture of acetone/tween/DMSO/water not containing the active material. After 24 hours, the plants are contaminated by spraying the leaves with an aqueous suspension of cryopreserved Septoria tritici spores (500 000 spores per ml). […] Grading (% of efficacy) is carried out 24 days after the contamination, in comparison with the control plants.

Alternaria brassicae = experiment: In vivo preventive test on Alternaria brassicae (leaf spot on radish); details: 500 ppm, preventive spray, radish plants, grading 6 days after contamination
Method: Radish plants (“Pernod Clair” variety), sown in starter cups on a 50/50 peat soil-pozzolana substrate and grown at 17° C., are treated at the cotyledon stage by spraying with the active ingredient prepared as described above. Plants, used as controls, are treated with the mixture of acetone/tween/DMSO/water not containing the active material. After 24 hours, the plants are contaminated by spraying the cotyledons with an aqueous suspension of Alternaria brassicae spores (50 000 spores per ml). The spores are collected from a 15-day-old culture. […] Grading (% of efficacy) is carried out 6 days after the contamination, in comparison with the control plants.

Phytophthora infestans = format: in vivo; details: 500 ppm, preventive spray, tomato plants, grading 5 days after contamination

Row | Compound | logP [1] | Eff. % [2] | Eff. % (Sphaerotheca fuliginea) | Eff. % (Phakopsora pachyrhizi) | Eff. % [3] | Eff. % (Uromyces appendiculatus) | Eff. % (Puccinia recondita) | Eff. % (Pyrenophora teres) | Eff. % (Pyricularia oryzae) | Eff. % (Venturia inaequalis) | Eff. % (Botrytis cinerea) | Eff. % (Septoria tritici) | Eff. % (Alternaria brassicae) | Eff. % (Phytophthora infestans)
1 | CC1CC(C(C)C)c2cccc(NC(=O)c3cn(C)nc3C(F)F)c21 (stereo not shown) [Example 1] | 3.74[a] | 80% | 100% | 100% | 86% | 100% | 100% | 81% | 93% | – | – | – | – | –
2 | CC1CC(C)c2c(NC(=O)c3cn(C)nc3C(F)F)cccc21 (stereo not shown) [Example 7] | 3.04[a] | 94% | 100% | 100% | 100% | 100% | 100% | 92% | – | 100% | 100% | 93% | 100% | 99%

Source: patent US9199941B2, “Pyrazole indanyl carboxamides” (BAYER CROPSCIENCE AG, priority 2012, dated 2015)
